Experimental data from US20260193264A1, “BENZOYPARAZINE PYRAZINES AND THEIR USES” (FOGHORN THERAPEUTICS INC., priority 2022, published 2026).

Assays:
[1] = target: T1, HiBit-BRG1 fusion protein in stable HeLa cell line expressing HiBit-BRG1 and LgBit (Homo sapiens, UniProt P51532); test: HiBiT-BRG1 cell-based degradation assay (Nano-Glo HiBiT, 24 h); details: HeLa HiBit-BRG1/LgBit cells; for DC50: read-out: BRMG1 HiBit Degradation IC50; for Dmax: top dose 30 μM, read-out: BRG1 HiBit Degradation Maximum (%)
T1 construct: expressed in transfected cells
Outline: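 Degradation calculated from NanoBiT luminescence relative to DMSO-treated cells (high) and cells given 2 μM known BRM/BRG1 degrader (low). HeLa cells stably expressing HiBiT-BRG1 plus LgBiT were exposed to compound for 24 h before lytic HiBiT detection.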

[2] = target: T2, HiBiT-BRM fusion protein in stable HeLa cell line (Homo sapiens, UniProt P51531); test: HiBiT-BRM cell-based degradation assay (Nano-Glo HiBiT Lytic Detection, 24 h); design: DC50: scale not given here; details: HeLa HiBiT-BRM cells; for DC50: read-out: BRM HiBit Degradation IC50; for BRM HiBit Degradation Maximum (%): top dose 30 μM
T2 construct: expressed in transfected cells
Outline: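 HeLa stably expressing HiBiT-BRM; 24 h compound exposure, 10-pt 3-fold dilution from 30 μM final, duplicates. Lytic LgBiT complementation, luminescence. % degradation vs DMSO (HC) and 2 μM known BRM/BRG1 degrader (LC).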

T2 sequence (P51531 whole entry, the tested form may be a part): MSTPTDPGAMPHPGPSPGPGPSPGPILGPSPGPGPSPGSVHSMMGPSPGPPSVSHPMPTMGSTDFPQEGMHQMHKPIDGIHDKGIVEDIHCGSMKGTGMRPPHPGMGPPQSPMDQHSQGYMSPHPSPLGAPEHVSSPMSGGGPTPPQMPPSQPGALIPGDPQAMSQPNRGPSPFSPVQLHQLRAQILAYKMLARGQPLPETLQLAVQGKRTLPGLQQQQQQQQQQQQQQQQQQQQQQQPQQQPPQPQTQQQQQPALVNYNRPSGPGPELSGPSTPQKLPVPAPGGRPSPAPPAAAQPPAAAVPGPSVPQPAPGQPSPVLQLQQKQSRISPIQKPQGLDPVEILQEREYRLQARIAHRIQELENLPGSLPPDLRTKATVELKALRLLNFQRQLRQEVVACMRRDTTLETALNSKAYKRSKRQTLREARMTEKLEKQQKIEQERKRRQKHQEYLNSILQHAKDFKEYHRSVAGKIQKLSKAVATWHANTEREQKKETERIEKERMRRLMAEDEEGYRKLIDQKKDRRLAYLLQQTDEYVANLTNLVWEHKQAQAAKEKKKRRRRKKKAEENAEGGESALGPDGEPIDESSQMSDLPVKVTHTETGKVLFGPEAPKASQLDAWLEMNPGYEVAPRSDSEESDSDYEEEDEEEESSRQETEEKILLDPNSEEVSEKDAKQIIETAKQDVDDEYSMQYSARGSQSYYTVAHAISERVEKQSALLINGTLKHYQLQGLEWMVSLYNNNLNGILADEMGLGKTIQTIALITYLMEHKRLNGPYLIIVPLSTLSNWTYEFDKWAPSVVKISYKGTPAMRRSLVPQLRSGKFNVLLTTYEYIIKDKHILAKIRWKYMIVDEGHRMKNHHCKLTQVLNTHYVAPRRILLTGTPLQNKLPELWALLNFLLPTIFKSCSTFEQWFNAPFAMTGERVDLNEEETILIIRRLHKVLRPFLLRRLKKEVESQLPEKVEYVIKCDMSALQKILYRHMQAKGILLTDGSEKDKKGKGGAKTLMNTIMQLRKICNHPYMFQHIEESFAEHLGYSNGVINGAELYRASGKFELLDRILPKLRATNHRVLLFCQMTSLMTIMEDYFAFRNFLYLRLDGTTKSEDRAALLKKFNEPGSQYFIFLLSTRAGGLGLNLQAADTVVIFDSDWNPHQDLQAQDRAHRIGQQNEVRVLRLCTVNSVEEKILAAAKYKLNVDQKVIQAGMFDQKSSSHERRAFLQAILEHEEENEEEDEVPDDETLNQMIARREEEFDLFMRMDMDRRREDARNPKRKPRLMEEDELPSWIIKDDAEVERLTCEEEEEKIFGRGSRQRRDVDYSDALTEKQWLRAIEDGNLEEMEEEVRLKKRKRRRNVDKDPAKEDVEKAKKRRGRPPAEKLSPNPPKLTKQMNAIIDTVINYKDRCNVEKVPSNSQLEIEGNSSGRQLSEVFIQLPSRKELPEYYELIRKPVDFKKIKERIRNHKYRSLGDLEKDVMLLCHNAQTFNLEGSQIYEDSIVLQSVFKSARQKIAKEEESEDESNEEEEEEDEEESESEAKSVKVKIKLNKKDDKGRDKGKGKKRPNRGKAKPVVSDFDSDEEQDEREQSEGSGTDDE
T1 sequence (P51532 whole entry, the tested form may be a part): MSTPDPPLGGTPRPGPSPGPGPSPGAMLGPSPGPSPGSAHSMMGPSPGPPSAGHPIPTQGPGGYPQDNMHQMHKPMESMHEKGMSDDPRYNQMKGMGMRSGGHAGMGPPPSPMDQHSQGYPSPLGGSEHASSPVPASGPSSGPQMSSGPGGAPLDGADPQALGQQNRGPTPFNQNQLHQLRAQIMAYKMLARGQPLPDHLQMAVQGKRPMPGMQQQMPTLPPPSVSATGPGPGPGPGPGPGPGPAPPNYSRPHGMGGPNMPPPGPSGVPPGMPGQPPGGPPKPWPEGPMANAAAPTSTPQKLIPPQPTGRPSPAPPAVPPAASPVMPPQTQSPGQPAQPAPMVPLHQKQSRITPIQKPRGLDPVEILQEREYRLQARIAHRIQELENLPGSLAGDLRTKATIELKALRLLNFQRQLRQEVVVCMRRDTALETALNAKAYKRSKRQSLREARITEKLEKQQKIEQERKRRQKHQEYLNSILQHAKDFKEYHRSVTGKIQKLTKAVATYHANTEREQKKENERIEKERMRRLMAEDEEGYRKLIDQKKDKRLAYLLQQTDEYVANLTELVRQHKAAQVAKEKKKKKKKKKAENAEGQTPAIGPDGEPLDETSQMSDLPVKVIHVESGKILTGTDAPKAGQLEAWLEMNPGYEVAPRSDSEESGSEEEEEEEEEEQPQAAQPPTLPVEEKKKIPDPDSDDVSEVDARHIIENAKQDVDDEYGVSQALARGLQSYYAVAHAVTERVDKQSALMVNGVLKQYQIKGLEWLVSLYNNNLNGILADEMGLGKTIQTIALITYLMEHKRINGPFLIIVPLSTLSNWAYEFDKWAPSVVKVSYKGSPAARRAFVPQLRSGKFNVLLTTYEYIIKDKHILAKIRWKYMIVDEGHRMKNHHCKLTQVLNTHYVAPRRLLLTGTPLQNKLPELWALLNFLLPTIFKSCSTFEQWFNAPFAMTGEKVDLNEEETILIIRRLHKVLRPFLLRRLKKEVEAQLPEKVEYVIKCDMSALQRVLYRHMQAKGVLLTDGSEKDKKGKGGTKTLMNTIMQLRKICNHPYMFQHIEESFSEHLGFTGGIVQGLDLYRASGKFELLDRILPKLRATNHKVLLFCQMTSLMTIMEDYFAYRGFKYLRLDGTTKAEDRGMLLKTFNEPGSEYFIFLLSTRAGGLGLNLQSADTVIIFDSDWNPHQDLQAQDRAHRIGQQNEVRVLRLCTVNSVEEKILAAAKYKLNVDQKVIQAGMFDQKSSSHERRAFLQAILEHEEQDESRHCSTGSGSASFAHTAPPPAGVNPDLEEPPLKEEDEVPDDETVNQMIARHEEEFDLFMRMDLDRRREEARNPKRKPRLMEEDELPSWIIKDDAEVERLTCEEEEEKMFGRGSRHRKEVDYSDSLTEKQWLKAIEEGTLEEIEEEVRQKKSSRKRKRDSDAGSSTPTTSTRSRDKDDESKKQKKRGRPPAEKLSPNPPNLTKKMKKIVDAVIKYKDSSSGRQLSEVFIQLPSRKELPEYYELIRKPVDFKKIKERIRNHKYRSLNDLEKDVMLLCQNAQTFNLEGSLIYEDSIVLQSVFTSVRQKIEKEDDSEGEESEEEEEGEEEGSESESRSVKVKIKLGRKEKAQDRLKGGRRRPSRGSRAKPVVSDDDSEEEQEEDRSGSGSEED

SMILES	DC50 [1]	Dmax [1]	DC50 [2]	BRM HiBit Degradation Maximum (%) [2]
Cc1ncsc1-c1ccc([C@H](C)NC(=O)[C@@H]2C[C@@H](O)CN2C(=O)[C@@H](c2cc(N3CC4(CCN4c4ccc5cc(-c6ccccc6O)nnc5c4)C3)no2)C(C)C)cc1 [Compound 100, (2S,4R)-4-hydroxy-1-((R)-2-(3-(1-(3-(2-hydroxyphenyl)cinnolin-7-yl)-1,6-diazaspiro[3.3]heptan-6-yl)isoxazol-5-yl)-3-methylbutanoyl)-N-((S)-1-(4-(4-methylthiazol-5-yl)phenyl)ethyl)pyrrolidine-2-carboxamide]	–	< 50%	> 10 nM	B (“B” indicates maximum degradation ≥50%)
Cc1ncsc1-c1ccc([C@H](C)NC(=O)[C@@H]2C[C@@H](O)CN2C(=O)[C@@H](c2cc(N3CCC[C@@H](c4ccc5nnc(-c6ccccc6O)cc5c4)C3)no2)C(C)C)cc1 [Compound 101, (2S,4R)-4-hydroxy-1-((R)-2-(3-((S)-3-(3-(2-hydroxyphenyl)cinnolin-6-yl)piperidin-1-yl)isoxazol-5-yl)-3-methylbutanoyl)-N-((S)-1-(4-(4-methylthiazol-5-yl)phenyl)ethyl)pyrrolidine-2-carboxamide]	–	< 50%	> 10 nM	A (“A” indicates maximum degradation ≥75%)
CC(C)[C@@H](C(=O)N1C[C@H](O)C[C@H]1C(=O)N[C@@H](C)c1ccc(Br)cc1)c1cc(N2CC3(CN(c4ccc5cc(-c6ccccc6O)nnc5c4)C3)C2)no1 [Compound 109, (2S,4R)-N-((S)-1-(4-bromophenyl)ethyl)-4-hydroxy-1-((R)-2-(3-(6-(3-(2-hydroxyphenyl)cinnolin-7-yl)-2,6-diazaspiro[3.3]heptan-2-yl)isoxazol-5-yl)-3-methylbutanoyl)pyrrolidine-2-carboxamide]	–	< 50%	< 10 nM	A (“A” indicates maximum degradation ≥75%)
CC(C)[C@@H](C(=O)N1C[C@H](O)C[C@H]1C(=O)N[C@@H](C)c1ccccc1F)c1cc(N2CC3(CN(c4ccc5cc(-c6ccccc6O)nnc5c4)C3)C2)no1 [Compound 110, (2S,4R)-N-((S)-1-(2-fluorophenyl)ethyl)-4-hydroxy-1-((R)-2-(3-(6-(3-(2-hydroxyphenyl)cinnolin-7-yl)-2,6-diazaspiro[3.3]heptan-2-yl)isoxazol-5-yl)-3-methylbutanoyl)pyrrolidine-2-carboxamide]	–	< 50%	< 10 nM	A (“A” indicates maximum degradation ≥75%)
CC(C)[C@@H](C(=O)N1C[C@H](O)C[C@H]1C(=O)NCc1ccccc1)c1cc(N2CC3(CN(c4ccc5cc(-c6ccccc6O)nnc5c4)C3)C2)no1 [Compound 111, (2S,4R)-N-benzyl-4-hydroxy-1-((R)-2-(3-(6-(3-(2-hydroxyphenyl)cinnolin-7-yl)-2,6-diazaspiro[3.3]heptan-2-yl)isoxazol-5-yl)-3-methylbutanoyl)pyrrolidine-2-carboxamide]	–	< 50%	< 10 nM	A (“A” indicates maximum degradation ≥75%)
CC(C)C(C(=O)N1C[C@H](O)C[C@H]1C(=O)N[C@@H](C)c1ccc(C#N)cc1)c1cc(N2CC3(CN(c4ccc5cc(-c6ccccc6O)nnc5c4)C3)C2)no1 (stereo partly drawn) [Compound 112, (2S,4R)-N-((S)-1-(4-cyanophenyl)ethyl)-4-hydroxy-1-(2-(3-(6-(3-(2-hydroxyphenyl)cinnolin-7-yl)-2,6-diazaspiro[3.3]heptan-2-yl)isoxazol-5-yl)-3-methylbutanoyl)pyrrolidine-2-carboxamide]	> 10 nM	> 50%	< 10 nM	A (“A” indicates maximum degradation ≥75%)

Now from value to compound, other results behind:

DC50 [1]	Dmax [1]	DC50 [2]	SMILES	BRM HiBit Degradation Maximum (%) [2]
< 10 nM	> 75%	< 10 nM	Cc1ncsc1-c1ccc([C@H](C)NC(=O)[C@@H]2C[C@@H](O)CN2C(=O)[C@@H](c2cc(N3CC[C@@]4(CCN(c5ccc6cc(-c7ccccc7O)nnc6c5)C4)C3)no2)C(C)C)cc1 [Compound 99, (2S,4R)-4-hydroxy-1-((R)-2-(3-((R)-7-(3-(2-hydroxyphenyl)cinnolin-7-yl)-2,7-diazaspiro[4.4]nonan-2-yl)isoxazol-5-yl)-3-methylbutanoyl)-N-((S)-1-(4-(4-methylthiazol-5-yl)phenyl)ethyl)pyrrolidine-2-carboxamide]	A (“A” indicates maximum degradation ≥75%)
–	< 50%	< 10 nM	Cc1ncsc1-c1ccc([C@H](C)NC(=O)[C@@H]2C[C@@H](O)CN2C(=O)[C@@H](c2cc(N3CC4(CCN4c4ccc5nnc(-c6ccccc6O)cc5c4)C3)no2)C(C)C)cc1 [Compound 102, (2S,4R)-4-hydroxy-1-((R)-2-(3-(1-(3-(2-hydroxyphenyl)cinnolin-6-yl)-1,6-diazaspiro[3.3]heptan-6-yl)isoxazol-5-yl)-3-methylbutanoyl)-N-((S)-1-(4-(4-methylthiazol-5-yl)phenyl)ethyl)pyrrolidine-2-carboxamide]	A (“A” indicates maximum degradation ≥75%)
–	< 50%	< 10 nM	Cc1ncsc1-c1ccc([C@H](C)NC(=O)[C@@H]2C[C@@H](O)CN2C(=O)[C@@H](c2cc(N3CCC4(CC3)CCN(c3ccc5cc(-c6ccccc6O)nnc5c3)C(=O)C4)no2)C(C)C)cc1 [Compound 103, (2S,4R)-4-hydroxy-1-((R)-2-(3-(9-(3-(2-hydroxyphenyl)cinnolin-7-yl)-8-oxo-3,9-diazaspiro[5.5]undecan-3-yl)isoxazol-5-yl)-3-methylbutanoyl)-N-((S)-1-(4-(4-methylthiazol-5-yl)phenyl)ethyl)pyrrolidine-2-carboxamide]	A (“A” indicates maximum degradation ≥75%)
–	< 50%	< 10 nM	Cc1ncsc1-c1ccc([C@H](C)NC(=O)[C@@H]2C[C@@H](O)CN2C(=O)[C@@H](c2cc(N3CCC4(CC3)CCN(c3ccc5cc(-c6ccccc6O)nnc5c3)C4=O)no2)C(C)C)cc1 [Compound 104, (2S,4R)-4-hydroxy-1-((R)-2-(3-(2-(3-(2-hydroxyphenyl)cinnolin-7-yl)-1-oxo-2,8-diazaspiro[4.5]decan-8-yl)isoxazol-5-yl)-3-methylbutanoyl)-N-((S)-1-(4-(4-methylthiazol-5-yl)phenyl)ethyl)pyrrolidine-2-carboxamide]	A (“A” indicates maximum degradation ≥75%)
< 10 nM	> 75%	< 10 nM	Cc1ncsc1-c1ccc([C@H](C)NC(=O)[C@@H]2C[C@@H](O)CN2C(=O)[C@@H](c2cc(N3CC4(CCN(c5ccc6cc(-c7ccccc7O)nnc6c5)CC4(F)F)C3)no2)C(C)C)cc1 [Compound 105, (2S,4R)-1-((R)-2-(3-(5,5-difluoro-7-(3-(2-hydroxyphenyl)cinnolin-7-yl)-2,7-diazaspiro[3.5]nonan-2-yl)isoxazol-5-yl)-3-methylbutanoyl)-4-hydroxy-N-((S)-1-(4-(4-methylthiazol-5-yl)phenyl)ethyl)pyrrolidine-2-carboxamide]	A (“A” indicates maximum degradation ≥75%)
< 10 nM	> 75%	< 10 nM	Cc1ncsc1-c1ccc([C@H](C)NC(=O)[C@@H]2C[C@@H](O)CN2C(=O)[C@@H](c2cc(N3CCC4(CCN(c5ccc6cc(-c7ccccc7O)nnc6c5)CC4)CC3)no2)C(C)C)cc1 [Compound 106, (2S,4R)-4-hydroxy-1-((R)-2-(3-(9-(3-(2-hydroxyphenyl)cinnolin-7-yl)-3,9-diazaspiro [5.5]undecan-3-yl)isoxazol-5-yl)-3-methylbutanoyl)-N-((S)-1-(4-(4-methylthiazol-5-yl)phenyl)ethyl)pyrrolidine-2-carboxamide]	A (“A” indicates maximum degradation ≥75%)
< 10 nM	> 75%	< 10 nM	Cc1ncsc1-c1ccc([C@H](C)NC(=O)[C@@H]2C[C@@H](O)CN2C(=O)[C@@H](c2cc(N3CCN([C@@H]4CCN(c5ccc6cc(-c7ccccc7O)nnc6c5)CC4(F)F)CC3)no2)C(C)C)cc1 [Compound 107, (2S,4R)-1-((R)-2-(3-(4-((R)-3,3-difluoro-1-(3-(2-hydroxyphenyl)cinnolin-7-yl)piperidin-4-yl)piperazin-1-yl)isoxazol-5-yl)-3-methylbutanoyl)-4-hydroxy-N-((S)-1-(4-(4-methylthiazol-5-yl)phenyl)ethyl)pyrrolidine-2-carboxamide]	A (“A” indicates maximum degradation ≥75%)
> 10 nM	> 75%	< 10 nM	Cc1ncsc1-c1ccc([C@H](C)NC(=O)[C@@H]2C[C@@H](O)CN2C(=O)C(c2cc(N3CCC4(CN(c5ccc6cc(-c7ccccc7O)nnc6c5)C4)C(F)(F)C3)no2)C(C)C)cc1 (stereo partly drawn) [Compound 108, (2S,4R)-1-(2-(3-(5,5-difluoro-2-(3-(2-hydroxyphenyl)cinnolin-7-yl)-2,7-diazaspiro [3.5]nonan-7-yl)isoxazol-5-yl)-3-methylbutanoyl)-4-hydroxy-N-((S)-1-(4-(4-methylthiazol-5-yl)phenyl)ethyl)pyrrolidine-2-carboxamide]	A (“A” indicates maximum degradation ≥75%)
